What was measured:
[1] = system: human prostate cancer cells (PC3); experiment: Assessment of cytotoxicity by SRB assay, PC3 cells; assay type: cell-based; conditions: 0.01 μM to 100 μM, 72 h
Method: (§1) The human prostate cancer cells (PC3) and human osteosarcoma cells (MG-63) were obtained from Nawah Scientific Inc. (Mokatam, Cairo, Egypt) and cultured in DMEM (Dulbecco's modified eagle's medium), Gibco, USA, supplemented with fetal bovine serum […] at a concentration of 10% and 100 U/mL of penicillin and streptomycin (PS). The Cells were incubated at 37° C. in a humidified environment that contained 5% CO2.
(§2) Cells were seeded in 96-well plates as aliquots of 100 μL cell suspension and incubated in a complete media for 24 h. Afterward, cells were treated with 1,3-benzothiazol-2-yl-N′-[(3-phenylprop-2-enoyl)oxy]ethanimidamide at diverse concentrations ranging from 0.01 μM to 100 μM for 72 h. Then, cells were fixed at 4° C. for one hour with 150 μL of 10% trichloroacetic acid (TCA). […] Then, 150 μL of Tris pH 10.5 (10 mM) was added, and the absorbance was measured at 540 nm using a BMG LABTECH®—FLUOstar Omega microplate reader (Ortenberg, Germany). Half maximal inhibitory concentrations (IC50) values were calculated for each experiment using GraphPad Prism 6 software. […] The inhibition was calculated using the following equation: Inhibition %=100−Average Viability
(§3) The anticancer activity of 1,3-benzothiazol-2-yl-N′-[(3-phenylprop-2-enoyl)oxy]ethanimidamide was assessed against highly aggressive androgen-independent metastatic human prostate cancer cells (PC3) and osteosarcoma (MG-63) cells.

[2] = system: human osteosarcoma cells (MG-63); experiment: Assessment of cytotoxicity by SRB assay, MG-63 cells; assay type: cell-based; conditions: 0.01 μM to 100 μM, 72 h
Method: as §1, §2, §3

SMILES: N/C(Cc1nc2ccccc2s1)=N\OC(=O)/C=C/c1ccccc1 [1,3-benzothiazol-2-yl-N′-[(3-phenylprop-2-enoyl)oxy]ethanimidamide]
- antiproliferative activity against prostate cancer cells (PC3) [1]: excellent antiproliferative activities
- antiproliferative activity against osteosarcoma (MG-63) cells [2]: excellent antiproliferative activities
- melting point: 157 to 159 °C

Source: patent US11912677B1, “1,3-benzothiazol-2-yl-N'-[(3-phenylprop-2-enoyl)oxy]ethanimidamide as an anticancer and antimicrobial compound” (KING FAISAL UNIVERSITY, priority 2023, dated 2024)
